Source: patent publication US20090130229A1, “Antitumor uses of compound” (Cell Therapeutics, Inc., priority 2002, published 2009)

Target: T1, c-Kit (Homo sapiens, UniProt P10721)
T1 construct: endogenous in cells; host or cells: N592 (human small cell lung carcinoma)
Experiment: c-Kit autophosphorylation and expression in SCLC cell line N592
Format: cell-based
Conditions: N592 cells, 24 h
Experimental: FIG. 7. Effects of Cpd1 on cell lines expressing constitutively activated forms of Kit. […] Cells were treated with 20 μM Cpd1 and photographed 24 h later under a phase-contrast microscope (original magnification X 100). B): Inhibition of Kit (Δ559) autophosphorylation and expression in NIH3T3 transfectants. Cells were treated with Cpd 1 at the indicated concentrations, for 72 h. Cell lysates were immunoprecipitated with anti-Kit antibody and subjected to Western blotting with anti-p-Tyr or anti-Kit antibodies. C): Inhibition of expression and autocrine loop-activated autophosphorylation of c-Kit in the SCLC cell line N592. Cells were treated with Cpd 1 at the indicated concentrations, for 24 h. Whole cell lysates were subjected to Western blotting with anti-Kit antibody or with an antibody specifically recognizing the tyrosine phosphorylated/activated Kit (p-Kit). […]
For whole-cell extract preparation, cells were lysed in sodium dodecyl sulfate (SDS) sample buffer (62.5 mM Tris-HCl (pH 6.8), 2% SDS) with 1 mM PMSF, 10 μg/ml pepstatin, 12.5 μg/ml leupeptin, 100 KIU aprotinin, 1 mM sodium orthovanadate, 1 mM sodium molybdate. Protein concentration was determined in appropriately diluted aliquots by the bicinchionic acid (BCA) method (Pierce, Rockford, Ill.), then samples were adjusted to a final concentration of 10% glycerol, 5% β-mercaptoethanol, 0.001% bromophenol blue. […]

T1 sequence (P10721 26-976): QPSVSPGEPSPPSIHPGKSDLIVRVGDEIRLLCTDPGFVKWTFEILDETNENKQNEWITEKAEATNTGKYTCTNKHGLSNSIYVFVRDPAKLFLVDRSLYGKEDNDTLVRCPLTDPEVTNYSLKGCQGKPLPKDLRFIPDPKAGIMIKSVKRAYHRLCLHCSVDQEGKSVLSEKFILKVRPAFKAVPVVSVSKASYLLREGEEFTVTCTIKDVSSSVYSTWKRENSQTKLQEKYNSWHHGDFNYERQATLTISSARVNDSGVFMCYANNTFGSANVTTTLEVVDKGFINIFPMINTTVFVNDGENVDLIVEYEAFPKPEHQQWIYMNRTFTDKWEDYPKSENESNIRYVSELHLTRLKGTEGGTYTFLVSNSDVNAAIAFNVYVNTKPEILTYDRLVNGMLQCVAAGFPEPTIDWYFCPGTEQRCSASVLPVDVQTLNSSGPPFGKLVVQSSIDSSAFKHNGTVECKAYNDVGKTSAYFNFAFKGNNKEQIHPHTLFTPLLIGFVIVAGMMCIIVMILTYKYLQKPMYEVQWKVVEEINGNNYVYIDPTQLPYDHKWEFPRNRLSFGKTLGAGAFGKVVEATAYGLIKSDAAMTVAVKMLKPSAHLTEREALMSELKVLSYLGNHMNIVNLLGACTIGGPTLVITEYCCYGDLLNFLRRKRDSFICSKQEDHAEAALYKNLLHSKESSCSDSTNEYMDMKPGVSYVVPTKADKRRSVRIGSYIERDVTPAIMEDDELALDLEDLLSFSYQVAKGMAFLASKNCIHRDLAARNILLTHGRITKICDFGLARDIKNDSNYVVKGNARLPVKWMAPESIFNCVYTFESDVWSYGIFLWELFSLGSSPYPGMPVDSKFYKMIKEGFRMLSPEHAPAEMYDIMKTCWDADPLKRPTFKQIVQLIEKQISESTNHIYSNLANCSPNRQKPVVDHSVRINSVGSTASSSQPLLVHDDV

**Q.** How did the “c-Kit autocrine loop-activated tyrosine phosphorylation (p-Kit)” value turn out when `COc1cc2c(cc1OC)/C(=C\c1ccc(O)cc1)C(=O)N2` [Cpd 1, (E)-1,3-dihydro-5,6-dimethoxy-3-[(4-hydroxyphenyl)methylene]-2H-indol-2-one] was run?
**A.** dose-dependent drug-induced inhibition

**Q.** And the c-Kit expression?
**A.** dose-dependent drug-induced inhibition
